Results on four compounds are retold here after article PMC3914206.

Format in all cases: binding
Holding throughout (settings): Compound Concentration 10 µM

The target in experiment [1] is T1, panel of 442 kinases (Homo sapiens, UniProt O94806).
T1 construct: purchased KINOMEscan
T1 sequence (O94806 1-890): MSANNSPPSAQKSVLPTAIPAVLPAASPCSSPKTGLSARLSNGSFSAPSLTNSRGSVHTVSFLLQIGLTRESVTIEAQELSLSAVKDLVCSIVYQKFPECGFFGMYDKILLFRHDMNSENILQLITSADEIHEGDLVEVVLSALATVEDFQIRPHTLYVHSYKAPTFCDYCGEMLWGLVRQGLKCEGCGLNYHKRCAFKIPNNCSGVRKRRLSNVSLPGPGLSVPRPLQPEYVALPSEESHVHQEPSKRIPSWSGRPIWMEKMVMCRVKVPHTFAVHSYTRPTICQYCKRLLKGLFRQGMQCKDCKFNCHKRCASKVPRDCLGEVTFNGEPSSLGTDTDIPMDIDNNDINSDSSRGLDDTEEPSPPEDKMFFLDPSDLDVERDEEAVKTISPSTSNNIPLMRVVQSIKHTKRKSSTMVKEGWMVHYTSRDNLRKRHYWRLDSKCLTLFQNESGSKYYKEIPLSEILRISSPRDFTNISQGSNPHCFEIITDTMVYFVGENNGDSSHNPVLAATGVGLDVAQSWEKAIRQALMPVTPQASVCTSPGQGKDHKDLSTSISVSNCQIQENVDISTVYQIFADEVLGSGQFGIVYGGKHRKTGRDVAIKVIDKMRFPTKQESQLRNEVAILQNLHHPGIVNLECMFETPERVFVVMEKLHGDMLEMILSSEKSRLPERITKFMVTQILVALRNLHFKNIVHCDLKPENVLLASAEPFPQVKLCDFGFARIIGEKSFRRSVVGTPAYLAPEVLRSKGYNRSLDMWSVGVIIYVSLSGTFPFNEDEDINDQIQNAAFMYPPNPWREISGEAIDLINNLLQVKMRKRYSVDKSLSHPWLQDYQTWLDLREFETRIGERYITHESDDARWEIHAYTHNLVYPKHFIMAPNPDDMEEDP
The text has this: (§1) We assessed the selectivity of members of this scaffold using the KINOMEscan methodology across a near comprehensive panel of 442 kinases [[18,27]].

Experiment [2] concerns the target T2, panel of 442 kinases (Homo sapiens, UniProt Q96RR4).
T2 construct: purchased KINOMEscan
Source text: as §1

Experiment [3] concerns the target T3, panel of 442 kinases (Homo sapiens, UniProt Q9Y6R4).
T3 construct: purchased KINOMEscan
Source text: as §1

T3 sequence (Q9Y6R4 whole entry): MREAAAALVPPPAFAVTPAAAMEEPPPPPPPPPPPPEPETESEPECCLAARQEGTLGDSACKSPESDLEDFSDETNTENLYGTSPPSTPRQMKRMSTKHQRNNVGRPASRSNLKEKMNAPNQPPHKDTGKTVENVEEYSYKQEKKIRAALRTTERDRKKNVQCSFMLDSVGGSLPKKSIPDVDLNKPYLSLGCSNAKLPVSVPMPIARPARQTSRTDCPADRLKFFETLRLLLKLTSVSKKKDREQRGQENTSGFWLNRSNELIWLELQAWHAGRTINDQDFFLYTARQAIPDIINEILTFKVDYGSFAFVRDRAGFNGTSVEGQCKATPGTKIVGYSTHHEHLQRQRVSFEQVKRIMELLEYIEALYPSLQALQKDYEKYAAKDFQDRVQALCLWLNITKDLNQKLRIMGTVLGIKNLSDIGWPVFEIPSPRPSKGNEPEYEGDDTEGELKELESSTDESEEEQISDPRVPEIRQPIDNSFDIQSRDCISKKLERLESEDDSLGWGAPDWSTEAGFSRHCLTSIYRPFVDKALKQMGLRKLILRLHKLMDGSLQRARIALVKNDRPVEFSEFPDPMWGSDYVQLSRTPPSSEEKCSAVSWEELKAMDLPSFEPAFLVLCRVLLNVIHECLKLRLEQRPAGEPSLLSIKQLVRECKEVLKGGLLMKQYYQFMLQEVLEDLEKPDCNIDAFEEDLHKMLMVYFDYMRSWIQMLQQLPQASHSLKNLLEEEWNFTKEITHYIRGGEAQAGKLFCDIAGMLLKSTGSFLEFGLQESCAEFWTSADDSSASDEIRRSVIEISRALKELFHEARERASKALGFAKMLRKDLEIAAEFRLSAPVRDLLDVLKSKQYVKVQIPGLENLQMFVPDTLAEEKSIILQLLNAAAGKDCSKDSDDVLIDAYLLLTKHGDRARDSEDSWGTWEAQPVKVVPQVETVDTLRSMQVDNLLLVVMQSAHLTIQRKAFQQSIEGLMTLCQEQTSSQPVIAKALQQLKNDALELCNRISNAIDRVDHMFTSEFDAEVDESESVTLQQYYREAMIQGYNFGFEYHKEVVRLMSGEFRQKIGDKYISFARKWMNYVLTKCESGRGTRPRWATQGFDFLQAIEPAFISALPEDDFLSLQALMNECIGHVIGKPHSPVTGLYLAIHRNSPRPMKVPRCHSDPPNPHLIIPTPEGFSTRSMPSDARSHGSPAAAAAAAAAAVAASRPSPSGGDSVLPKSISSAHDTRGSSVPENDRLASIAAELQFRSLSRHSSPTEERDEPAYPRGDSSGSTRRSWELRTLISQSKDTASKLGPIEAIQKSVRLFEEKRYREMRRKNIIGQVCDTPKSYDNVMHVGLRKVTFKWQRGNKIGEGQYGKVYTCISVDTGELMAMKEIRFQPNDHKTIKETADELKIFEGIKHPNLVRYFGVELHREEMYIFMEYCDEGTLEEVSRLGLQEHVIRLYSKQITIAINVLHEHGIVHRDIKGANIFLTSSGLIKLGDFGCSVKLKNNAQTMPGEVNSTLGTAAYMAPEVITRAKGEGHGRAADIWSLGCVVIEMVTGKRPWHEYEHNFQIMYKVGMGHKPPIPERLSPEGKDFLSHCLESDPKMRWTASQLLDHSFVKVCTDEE
T2 sequence (Q96RR4 whole entry): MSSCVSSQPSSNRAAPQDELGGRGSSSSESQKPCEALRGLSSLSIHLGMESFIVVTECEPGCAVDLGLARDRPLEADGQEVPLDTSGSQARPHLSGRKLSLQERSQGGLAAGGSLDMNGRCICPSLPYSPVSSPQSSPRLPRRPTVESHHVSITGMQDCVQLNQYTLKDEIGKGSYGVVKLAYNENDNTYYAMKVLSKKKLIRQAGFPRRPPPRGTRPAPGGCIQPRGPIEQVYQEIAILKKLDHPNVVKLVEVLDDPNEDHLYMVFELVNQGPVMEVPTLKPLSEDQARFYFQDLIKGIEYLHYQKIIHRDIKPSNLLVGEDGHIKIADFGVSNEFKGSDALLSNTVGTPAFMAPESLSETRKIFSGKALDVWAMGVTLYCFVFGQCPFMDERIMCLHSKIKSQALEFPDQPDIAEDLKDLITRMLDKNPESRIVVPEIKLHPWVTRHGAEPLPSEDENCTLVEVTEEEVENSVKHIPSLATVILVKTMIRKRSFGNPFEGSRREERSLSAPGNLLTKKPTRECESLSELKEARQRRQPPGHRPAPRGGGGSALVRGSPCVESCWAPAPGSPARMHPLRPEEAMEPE

Regarding `COc1cc(C(=O)N2CCC(N3CCN(C)CC3)CC2)ccc1Nc1ncc2c(n1)N(C)c1ccccc1C(=O)N2C` [15 (LRRK2-IN-1)], at panel of 442 kinases [1], the “KINOMEscan: PRKD3” value came to 42. Moreover, the “KINOMEscan: CAMKK2” value on panel of 442 kinases [2] worked out at 31. In addition, the “KINOMEscan: MAP3K4” value at panel of 442 kinases [3] was 100.

Take `COc1cc(C(=O)N2CCC(N3CCN(C)CC3)CC2)ccc1Nc1ncc2c(n1)N1CCc3cccc(c31)C(=O)N2C` [Compound 24]: the “KINOMEscan: PRKD3” value at panel of 442 kinases [1] amounted to 19. Also, the “KINOMEscan: CAMKK2” value on panel of 442 kinases [2] stood at 52.

For the compound `COc1cc(C(=O)N2CCC(N3CCN(C)CC3)CC2)ccc1Nc1ncc2c(n1)N(C1CCCC1)c1ccccc1C(=O)N2C` [Compound 25, 11-cyclopentyl-2-((2-methoxy-4-(4-(4-methylpiperazin-1-yl)piperidine-1-carbonyl)phenyl)amino)-5-methyl-5H-benzo[e]pyrimido[5,4-b][1,4]diazepin-6(11H)-one], the “KINOMEscan: PRKD3” value on panel of 442 kinases [1] worked out at 100. Besides, the “KINOMEscan: CAMKK2” value at panel of 442 kinases [2] is listed as 78. In addition, on panel of 442 kinases [3], the “KINOMEscan: MAP3K4” value is recorded as 100.

For `CCOc1cc(C(=O)N2CCC(N3CCN(C)CC3)CC2)ccc1Nc1ncc2c(n1)N(C1CCCC1)c1ccccc1C(=O)N2C` [Compound 26], the “KINOMEscan: PRKD3” value at panel of 442 kinases [1] was found to be 100. Also, at panel of 442 kinases [2], the “KINOMEscan: CAMKK2” value is reported as 100. For the same compound, the “KINOMEscan: MAP3K4” value on panel of 442 kinases [3] is 100.
